From publication PMC11249646, “Small-Molecule Disruptors of the Interaction between Calcium- and Integrin-Binding Protein 1 and Integrin αIIbβ3 as Novel Antiplatelet Agents” (ACS Pharmacology & Translational Science, 2024)
Where two headings read alike, the source gives them in different places.

Assays:
[1] = molecular target: T1, CIB1 and αIIb interaction (CIB1-GST : F-αIIb peptide) (Homo sapiens, UniProt Q99828); assay: FP assay, 1536-well qHTS format (primary and confirmatory screen); format: binding
T1 construct: made in house; host or cells: BL-21 plus RIL cells (E. coli)
T1 sequence (Q99828 1-191): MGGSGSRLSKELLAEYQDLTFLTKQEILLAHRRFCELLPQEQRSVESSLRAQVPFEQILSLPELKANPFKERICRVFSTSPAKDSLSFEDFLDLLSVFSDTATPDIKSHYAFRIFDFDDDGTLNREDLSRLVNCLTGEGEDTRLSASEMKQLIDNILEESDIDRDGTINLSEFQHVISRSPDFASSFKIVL

[2] = molecular target: T2, GST-CIB1 : F-scrambled peptide (Homo sapiens, UniProt Q99828); assay: FP scrambled-peptide counter screen, 1536-well format; format: binding; settings: scrambled-peptide counterscreen
T2 construct: made in house; host or cells: BL-21 plus RIL cells (E. coli)
T2 sequence (Q99828 1-191): T1 sequence (Q99828 1-191)

CIB1 and αIIb peptide = molecular target: T3, CIB1 and αIIb peptide (Homo sapiens, UniProt Q99828); assay: Intrinsic tryptophan fluorescence (ITF) assay
T3 sequence (Q99828 1-191): T1 sequence (Q99828 1-191)

[3] = molecular target: T4, GST-CIB1 : F-αIIb peptide (Homo sapiens, UniProt Q99828); assay: FP assay in the presence of glutathione (GSH), thiol reactivity; format: binding
T4 construct: made in house; host or cells: BL-21 plus RIL cells (E. coli)
T4 sequence (Q99828 1-191): T1 sequence (Q99828 1-191)

[4] = molecular target: T5, CIB1 and αIIb interaction (GST-CIB1 : F-αIIb peptide) (Homo sapiens, UniProt Q99828); assay: FP assay, 384-well format (screen); format: binding; parameters: 384-well SCREEN Efficacy (%): concentration or dose not given beside the values
T5 construct: made in house; host or cells: BL-21 plus RIL cells (E. coli)
T5 sequence (Q99828 1-191): T1 sequence (Q99828 1-191)

[5] = molecular target: T6, GST-CIB1:F-αIIb interaction (Homo sapiens, UniProt Q99828); assay: Gel-based (in-gel) binding assay; settings: 1 μM GST-CIB1, 400 nM F-αIIb; 60 μM, 1:2, 4-points
T6 construct: made in house; host or cells: BL-21 plus RIL cells (E. coli)
T6 sequence (Q99828 1-191): T1 sequence (Q99828 1-191)

[6] = molecular target: T2, GST-CIB1 : F-scrambled peptide; assay: FP scrambled-peptide counter screen, 384-well format; format: binding; settings: F-scrambled peptide
washed human platelets = assay: Human platelet aggregation assay (thrombin-induced); format: cell-based
From the text: A classical challenge in target-based drug discovery is moving from biochemical to cellular assay and the essential step of determining if the compounds of interest can perform in a cellular context. After characterization of the compounds in a series of biochemical assay formats, our next step was to assess their activity in a cellular environment. Our previous studies have shown that the interaction of the cytoplasmic domain of integrin αIIbβ3, a key regulator of platelet aggregation, with CIB1, is involved in downstream signaling in platelet activation and aggregation. We sought to determine whether our candidate compounds were inhibiting this interaction by evaluating them for platelet function in a human platelet aggregation assay. We prepared platelet-rich plasma (PRP) and washed the platelets as previously described[44] and then performed a platelet aggregation assay using the washed platelet suspensions (2 × 10^8/platelets/mL) followed by the recording of aggregation traces (see Materials and Methods Section). To induce platelet aggregation, 0.03 U/mL of thrombin, a physiological agonist of platelet activation, was used.
Figure 6 Effect of compounds on human platelet activation. Representative platelet aggregation tracings of washed human platelet suspensions pretreated for 30 min at 37 °C with vehicle (DMSO) or compounds at indicated concentrations followed by activation with thrombin (0.03–0.1 U/mL). Panel (A): NCGC00071855. Panel (B–D): NCGC00351170. Panel (E): CD62P exposure was in the presence of NCGC00351170. Data represents mean ± SEM, n = 4 individual experiments; ns = non significant *P < 0.05, ***P < 0.001, ****P < 0.0001.
Whole blood was drawn by venipuncture from healthy adult volunteers (of both gender and race) with informed consent. Approval was obtained from the institutional review boards of Thomas Jefferson University, according to the Declaration of Helsinki. Blood was collected in acidified citrate dextrose as an anticoagulant. Platelet-rich plasma (PRP) and washed platelets were prepared, as previously described.[44] Platelet aggregation was performed using washed platelet suspensions containing 2 × 10^8 platelets/mL using a Chrono-Log Lumi-Aggregometer (Chrono-Log), as described previously.[11] Aggregation traces were recorded by using Aggrolink software (Chrono-Log). Thrombin-induced P-selectin (CD62P) exposure was performed using Accuri C6 flowcytometer (BD Bioscience) as described previously.[11]
Figure S9: Effect of compounds on human platelet activation. Representative platelet aggregation
tracings of washed human platelet suspensions treated with vehicle (DMSO) or indicated
compounds at 10 μM for 30 minutes at 37 °C followed by activation with thrombin (0.03U/mL).

[7] = In vitro ADME: RLM stability; settings: rat liver microsomes; read-out: Rat Liver Microsome Stability (t1/2)
[8] = In vitro ADME: PAMPA permeability
[9] = In vitro ADME: solubility; format: physicochemical; settings: read-out: Solubility

SMILES: Oc1ccc2ccccc2c1SSc1c(O)ccc2ccccc12 [NCGC00186047-02, IPA-3, reference compound]
- CONFIRMATORY SCREEN Confirm? ([1]; confirmatory screen, YES/NO call): YES
- CONFIRMATORY SCREEN Curve Class ([1]; confirmatory screen, qHTS curve class, negative sign = inhibitory curve): -1.4
- CONFIRMATORY SCREEN Efficacy (%) ([1]; confirmatory screen, negative = inhibition): -74%
- IC50 ([1]; confirmatory screen, read-out: CONFIRMATORY SCREEN IC50): 2.8 µM
- Efficacy (%) ([1]; qHTS primary screen hits, Table S2, negative = inhibition): -21%
- Curve Class ([1]; qHTS primary screen hits, Table S2, negative sign = inhibitory curve): -1.4
- IC50 ([1]; qHTS primary screen hits, Table S2, read-out: IC50): 10.3 µM
- COUNTERSCREEN Efficacy (%) [2]: -34%
- COUNTERSCREEN Confirm? ([2]; YES/NO call): YES
- COUNTERSCREEN Curve Class ([2]; qHTS curve class): -1.2
- IC50 ([2]; read-out: COUNTERSCREEN IC50): 31.6 µM
- IC50 (CIB1 and αIIb peptide): 16.6 µM
- IC50 ([3]; FP assay in the presence of glutathione (GSH +), read-out: GSH (+) Assay IC50): 0.326 µM
- IC50 ([3]; FP assay without glutathione (GSH -), read-out: GSH (-) Assay IC50): 0.232 µM
- GSH/CIB1 IC50 ratio ([3]; ratio of GSH (+) IC50 to GSH (-) IC50): 1.4
- GSH Assay Result ([3]; thiol reactivity call: No change / Active): No change
- shift in potency in the presence of GSH ([3]; with vs without 10 μM reduced GSH): no shift
- 384-well SCREEN Efficacy (%) ([4]; F-αIIb peptide): 76%
- 384-well SCREEN Confirm? ([4]; F-αIIb peptide, YES/NO): YES
- IC50 ([4]; F-αIIb peptide, read-out: 384-well SCREEN IC50): 1.3 µM
- Active in Gel Assay? [5]: YES
- 384-well COUNTERSCREEN Efficacy (%) [6]: 23%
- 384-well COUNTERSCREEN Confirm? ([6]; *: Curve in opposite direction): YES
- IC50 ([6]; read-out: 384-well COUNTERSCREEN IC50): > 120 µM

SMILES: O=C(c1ccccc1C(F)(F)F)c1no[n+]([O-])c1C(=O)c1ccccc1C(F)(F)F [NCGC00351167-01]
- inhibition at 10 µM (washed human platelets; Homo sapiens, Platelet, single concentration of 10 μM (n = 3), thrombin): 84%
- Thrombin Assay 10 µM (%) (washed human platelets; platelet aggregation inhibition at 10 µM): 84%
- half-life [7]: 2.34 min
- IC50 ([4]; 384-well FP assay, Table 1, read-out: FP assay IC50): 6.68 µM
- Papp [8]: < 12.4 ×10⁻⁶ cm/s
- solubility [9]: < 1 µg/mL
